Molecules are shown by their SMILES. Counter-ions that a name gives are not always drawn.

Experimental findings from US5556858A, “Cis-2-[(4-heteroaryl-1-piperazinyl)alkyl] hexahydro-1H-isoindole-1,3 (2H)-diones and related compounds and their therapeutic utility” (Hoechst-Roussel Pharmaceuticals, Inc., priority 1995, dated 1996) are described below.

For the first experiment, the system named is apomorphine climbing. The experiment is described as follows: climbing mice assay (antipsychotic activity). The experiment is classed as in vivo, mice (CK-1 male). The settings on record: Mus musculus; ip; apomorphine 1.5 mg/kg subcutaneously; climbing score vs control. On the procedure:
Subject […] male mice (23-27 grams) are group-housed under standard laboratory conditions. The mice are individually placed in wire mesh stick cages (4"×10") and are allowed one hour for adaption and exploration of the new environment.
For evaluation of climbing, 3 readings are taken at 10, 20, and 30 minutes-after apomorphine administration according to the following scale: […]
Mice consistently climbing before the injection of apomorphine are discarded.
With full-developed apomorphine climbing, the animals are hanging on to the cage walls, rather motionless, over long periods of time. By contrast, climbs due to mere motor stimulation usually only last a few seconds.
The climbing scores are individually totaled (maximal score: 6 per mouse over 3 readings) and the total score of the control group (vehicle intraperitoneally-apomorphine subcutaneously) is set to 100%.
For `O=C1c2ccccc2CN1CCN1CCC(c2noc3cc(F)ccc23)CC1` [2,3-dihydro-2-[2-[4-(6-Fluoro-1,2-benzisoxazol-3-yl)-1-piperidinyl]ethyl]-1H-isoindol-1-one], the ED50 was determined as 1.9 mg/kg.

The compound `OCCCN1CCC(c2noc3cc(F)ccc23)CC1` [6-Fluoro-3-[1-(3-hydroxypropyl)-4-piperidinyl]-1,2-benzisoxazole] yielded an ED50 of 4.1 mg/kg.

Consider `Cl.O=C1c2ccc(O)cc2C(=O)N1CCN1CCC(c2noc3cc(F)ccc23)CC1` [N-[2-[4-(6-Fluoro-1,2-benzisoxazol-3-yl)-1-piperidinyl]ethyl]-4-hydroxyphthalimide hydrochloride], for which it took a dose of 1.6 mg/kg to reach the 50% effect level (ED50).

In the case of `Fc1ccc2c(c1)CN(CCN1CCN(c3n[nH]c4cc(F)ccc34)CC1)C2.O=C(O)/C=C\C(=O)O.O=C(O)/C=C\C(=O)O` [4-(6-Fluoro-1H-indazol-3-yl)-1-[2-(5-fluoro-2,3-dihydro-1H-isoindol-2-yl)-ethyl]piperazine dimaleate], it took a dose of 0.16 mg/kg to reach the 50% effect level (ED50).

`Cl.O=C1c2ccccc2C(=O)N1CCN1CCC(c2nsc3cc(F)ccc23)CC1` [N-[2-[4-(6-Fluoro-1,2-benzisothiazol-3-yl)-1-piperidinyl]ethyl]phthalimide hydrochloride]: it took a dose of 0.38 mg/kg to reach the 50% effect level (ED50).

`Fc1ccc2c(N3CCN(CCCN4Cc5ccccc5C4)CC3)n[nH]c2c1` [4-(6-Fluoro-1H-indazol-3-yl)-1-[3-(2.3-dihydro-1H-isoindol-2-yl)propyl]-piperazine dimaleate] came in with a 50% effective dose (ED50) of 0.46 mg/kg.

Regarding `COc1cc(C(C)=O)ccc1OCCCCN1CCC(c2noc3cc(F)ccc23)CC1` [1-[4-[4-[4-(6-Fluoro-1,2-benzisoxazol-3-yl)-1-piperidinyl]butoxy]-3-methoxyphenyl]ethanone], the ED50 is 0.68 mg/kg.

In turn, `O=C1c2ccccc2C(=O)N1CCN1CCN(c2n[nH]c3cc(F)ccc23)CC1` [N-[2-[4-(6-Fluoro-1H-indazol-3.-yl)-1-piperazinyl]ethyl]phthalimide] came in with a 50% effective dose (ED50) of 1.2 mg/kg.

The compound `Nc1ccc2c(c1)C(=O)N(CCN1CCC(c3noc4cc(F)ccc34)CC1)C2=O.O=C(O)/C=C/C(=O)O` [N-[2-[4-(6-Fluoro-1,2-benzisoxazol-3-yl)-1-piperidinyl]ethyl]-4-aminophthalimide fumarate] had a 50% effective dose (ED50) of 0.097 mg/kg.

`O=C1c2c(F)ccc(F)c2C(=O)N1CCN1CCC(c2noc3cc(F)ccc23)CC1` [N-[2-[4-(6-Fluoro-1,2-benzisoxazol-3-yl)-1-piperidinyl]ethyl]-3,6-difluorophthalimide] showed a 50% effective dose (ED50) of 2.9 mg/kg.

`Fc1ccc2c(C3CCN(CCN4CCCc5ccccc54)CC3)noc2c1.O=C(O)/C=C/C(=O)O` [N-[2-[4-(6-Fluoro-1,2-benzisoxazol-3-yl)-1-piperidinyl]ethyl]-1,2,3,4-tetrahydroquinoline fumarate] showed a 50% effective dose (ED50) of 1.19 mg/kg.

Consider `CC1c2ccccc2C(=O)N1CCN1CCC(c2noc3cc(F)ccc23)CC1` (stereo not shown) [2-[2-[4-(6-Fluoro-1,2-benzisoxazol-3-yl)-1-piperidinylethyl]-2,3-dihydro-3-methyl-1H-isoindol-1-one hydrochloride], for which the 50% effect level (ED50) was put at a dose of 1.17 mg/kg.

Turning to `Cc1ccc2c(c1)C(=O)N(CCN1CCN(c3n[nH]c4cc(F)ccc34)CC1)C2=O` [N-[2-[4-(6-Fluoro-1H-indazol-3-yl)-1-piperazinyl]ethyl]-4-methylphthalimidedihydrochloride], the ED50 is 0.37 mg/kg. Compared with the last compound, the ED50 is about 3.2-fold lower.

The compound `O=C1c2ccccc2C(O)N1CCN1CCN(c2n[nH]c3cc(F)ccc23)CC1` (stereo not shown) [2-[2-[4-(6-Fluoro-1H-indazol-3-yl)-1-piperazinyl]ethyl-2,3-dihydro-3-hydroxy-1H-isoindol-1-one hemifumarate] showed a median effective dose (ED50) of 2.2 mg/kg.

In turn, `C=C1c2ccccc2C(=O)N1CCN1CCC(c2noc3cc(F)ccc23)CC1.Cl` [2,3-Dihydro-2-[2-[4-(6-fluoro-1,2-benzisoxazol-3-yl)-1-piperidinyl]ethyl]-3-methylene-1H-isoindol-1-one hydrochloride] returned a median effective dose (ED50) of 0.64 mg/kg.

In turn, `O=C(CN1CCC(c2noc3cc(F)ccc23)CC1)N1Cc2ccccc2C1.O=C(O)/C=C/C(=O)O` [2-[4-(6-Fluoro-1,2-benzisoxazol-3-yl)-1-piperidinyl]-1-(2,3-dihydro-1H-isoindol-2-yl)ethanone fumarate] came in with a median effective dose (ED50) of 2.33 mg/kg.

Compound `Fc1ccc2c(c1)CN(CCN1CCN(c3n[nH]c4ccccc34)CC1)C2.O=C(O)/C=C\C(=O)O.O=C(O)/C=C\C(=O)O` [4-(1H-indazol-3-yl)-1-[2-(2,3-dihydro-5-fluoro-1H-isoindol-2-yl)ethyl]piperazine dimaleate] came in with an ED50 of 1.32 mg/kg.

With `Cc1cccc2c1CN(CCN1CCN(c3n[nH]c4cc(F)ccc34)CC1)C2` [4-(6-Fluoro-1H-indazol-3,yl)-1-[2-(2.3-dihydro-4-methyl-1H-isoindol-2-yl)ethyl]piperazine difumarate], the 50% effective dose (ED50) is 0.35 mg/kg.

The compound `CC(=O)c1ccc(CCCCN2CCC(c3noc4cc(F)ccc34)CC2)cc1` [1-[4-(4'-Acetophenyl)butyl]-4-(6-fluoro-1,2-benzisoxazol-3-yl)piperidine] registered an ED50 of 0.34 mg/kg.

Take `Cc1nc2ccccc2c(=O)n1CCN1CCC(c2noc3cc(F)ccc23)CC1` [3-[2-[4-(6-Fluoro-1,2-benzisoxazol-3-yl)-1-piperidinyl]ethyl]-2-methyl-3H-quinazolin-4-one]: the ED50 worked out at 0.61 mg/kg. This ED50 lies about 1.8-fold higher than the previous one.

As for `Cc1ccc2c(c1)CN(CCN1CCN(c3n[nH]c4cc(F)ccc34)CC1)C2` [4-(Fluoro-1H-indazol-3-yl)-1-[2-(2,3-dihydro-5-methyl-1H-isoindol-2-yl)-ethyl]piperazine difumarate], the 50% effect level (ED50) was put at a dose of 0.17 mg/kg.

`COc1cc(C(C)=O)ccc1OC/C=C\CN1CCC(c2noc3cc(F)ccc23)CC1` [(Z)-1-[4-[[4-[4-(6-fluoro-1,2-benzisoxazol-3-yl)-1-piperidinyl]-2-butenyl]oxy]-3-methoxy-phenyl]ethanone]: the ED50 was 0.61 mg/kg. Compared with the last compound, the ED50 is about 3.6-fold higher.

As for `Cl.Cl.NCCCN1CCC(c2noc3cc(F)ccc23)CC1` [1-(3-Aminopropyl)-4-(6-fluoro-1,2-benzisoxazol-3-yl)piperidine dihydrochloride], the 50% effective dose (ED50) stood at 22.6 mg/kg. Compared with the last compound, the ED50 is about 37-fold higher.

In the case of `CCCCCCCCCC(=O)OCCCCN1CCC(c2noc3cc(F)ccc23)CC1.O=C(O)/C=C/C(=O)O` [4-[4-(6-Fluoro-1,2-benzisoxazol-3-yl)-1-piperidinyl]butyl decanoate fumarate], the ED50 came to 3.31 mg/kg.

As for `COc1cc(C(C)=O)ccc1OCCCCN1CCC(c2noc3ccccc23)CC1` [1-[4-[4-[4-(1,2-Benzisoxazol-3-yl)-1-piperidinyl]butoxy]-3-methoxyphenyl]ethanone], the 50% effect level (ED50) was put at a dose of 1.6 mg/kg.

`Fc1ccc2c(C3CCN(CCN4CCc5ccccc5C4)CC3)n[nH]c2c1.O=C(O)/C=C\C(=O)O.O=C(O)/C=C\C(=O)O` [N-[2-[4-(6-Fluoro-1H-indazol-3-yl)-1-piperidinyl]ethyl]-1,2,3,4-tetrahydroisoquinoline dimaleate] displayed an ED50 of 0.44 mg/kg. This ED50 lies about 3.6-fold lower than the previous one.

For the compound `COc1cc(C(C)=O)ccc1OCCCN1CCC(c2nsc3cc(F)ccc23)CC1.Cl` [1-[4-[3-[4-(6-Fluoro-1,2-benzisothiazol-3-yl)-1-piperidinyl]propoxy]-3-methoxy-phenyl]ethanone hydrochloride], the ED50 is 0.16 mg/kg.

`Fc1ccc2c(c1)CN(CCN1CCC(c3n[nH]c4cc(F)ccc34)CC1)C2.O=C(O)/C=C\C(=O)O.O=C(O)/C=C\C(=O)O` [4-(6-Fluoro-1H-indazol-3-yl)-1-[2-(5-fluoro-2,3-dihydro-1H-isoindol-2-yl)ethyl]piperidine dimaleate] showed an ED50 of 0.27 mg/kg. This ED50 is about 1.7-fold higher than that of the compound before.

`O=C1c2ccccc2C(=O)N1CCN1CCC(c2noc3cc(F)ccc23)CC1` [N-[2-[4-(6-Fluoro-1,2-benzisoxazol-3-yl)-1-piperidinyl]ethyl]phthalimide] gave an ED50 of 5 mg/kg.

With `O=C(CN1CCC(c2noc3cc(F)ccc23)CC1)N1CCc2ccccc2C1` [1-(1,2,3,4-Tetrahydro-1H-isoquinolin-2-yl)-2-[4-(6-fluoro-1,2-benzosoxazol-3-yl)-1-piperidinyl]-ethanone hydrochloride ethanolate], the ED50 was 6.25 mg/kg.

Compound `Cl.Cl.Fc1ccc2c(C3CCN(CCN4Cc5ccccc5C4)CC3)noc2c1` [4-(6-Fluoro-1,2-benzisoxazol-3-yl)-1-[2-(2,3-dihydro-1H-isoindol-2-yl)ethyl]-piperidine dihydrochloride] yielded a median effective dose (ED50) of 0.36 mg/kg.

Take `Fc1ccc2c(N3CCN(CCN4Cc5ccccc5C4)CC3)n[nH]c2c1.O=C(O)/C=C\C(=O)O.O=C(O)/C=C\C(=O)O` [4-(6-Fluoro-1H-indazol-3-yl)-1-[2-(2,3-dihydro-1H-isoindol-2-yl)-ethyl]piperazine dimaleate]: the ED50 worked out at 0.25 mg/kg.

The compound `Fc1ccc2c(C3CCN(CCC4COc5ccccc5O4)CC3)noc2c1` (stereo not shown) [2-[4-(6-fluoro-1,2-benzisoxazol-3-yl)-1-piperidinyl]-ethyl]-1,4-benzodioxan] gave a median effective dose (ED50) of 0.29 mg/kg. The ED50 values of the last two compounds are within 1.5-fold of each other.

In turn, `Fc1ccc2c(C3CCN(CCCOc4cccc5cnccc45)CC3)noc2c1` [6-Fluoro-3-[1-[3-[(isoquinol-5-yl)oxylpropyl]-4-piperidinyl]-1,2-benzisoxazole sesquifumarate] registered an ED50 of 0.172 mg/kg.

Consider `Fc1ccc2c(C3CCN(CCN4CCc5ccccc5C4)CC3)noc2c1` [N-12-[4-(6-Fluoro-1,2-benzisoxazol-3-yl)-1-piperidinyl]ethyl-1,2,3,4-tetrahydroisoquinoline difumarate], for which the ED50 is 0.23 mg/kg.

For the compound `COc1cccc2c1C(=O)N(CCN1CCC(c3noc4cc(F)ccc34)CC1)C2=O` [N-[2-[4-(6-fluoro-1,2-benzisoxazol-3-yl)-1-piperidinyl]ethyl]-3-methoxyphthalimide], it took a dose of 0.16 mg/kg to reach the 50% effect level (ED50).

The experiment is the same for the next values; noted with them: ip; apomorphine 1.5 mg/kg subcutaneously; climbing score vs control.
With `CC(CCN1C(=O)c2ccccc2C1=O)N1CCC(c2noc3cc(F)ccc23)CC1.Cl` (stereo not shown) [N,[3-[4-(6-Fluoro-1,2-benzisoxazol-3-yl)-1-piperidinyl]butyl]phthalimide hydrochloride], the “CLIMBING MOUSE ASSAY ED50” value stood at 0.7 mg/kg.
